From ChEMBL document CHEMBL1795320, “Synthesis and antibacterial activity of novel 4″-O-benzimidazolyl clarithromycin derivatives” (2011) come the findings set out here.

Converted amounts (≈) assume the structure as drawn.

Common to all, as to format: functional
One assay has as its system Staphylococcus aureus. Briefly: Antibacterial activity against erythromycin-susceptible Staphylococcus aureus ATCC 25923 by broth microdilution method.
In assay [1] the test system is Streptococcus pneumoniae. Briefly: Antibacterial activity against erythromycin-susceptible Streptococcus pneumoniae ATCC 49619 by broth microdilution method.
For assay [2], the system named is Streptococcus pneumoniae. Kind of assay: Antibacterial activity against erythromycin-resistant Streptococcus pneumoniae B1 expressing erm gene by broth microdilution method.
The test system of assay [3] is Streptococcus pneumoniae. Briefly: Antibacterial activity against erythromycin-resistant Streptococcus pneumoniae AB11 expressing erm and mef gene by broth microdilution method.
The test system of assay [4] is Streptococcus pneumoniae. Kind of assay: Ratio of erythromycin MIC to compound MIC for erythromycin-resistant Streptococcus pneumoniae A22072 expressing mef gene.
The test system of assay [5] is Streptococcus pneumoniae. Kind of assay: Antibacterial activity against erythromycin-resistant Streptococcus pneumoniae A22072 expressing mef gene by broth microdilution method.
Assay [6] deals with Streptococcus pneumoniae. Briefly: Ratio of clarithromycin MIC to compound MIC for erythromycin-resistant Streptococcus pneumoniae A22072 expressing mef gene.

Consider `CC[C@H]1OC(=O)[C@H](C)[C@@H](O[C@H]2C[C@@](C)(OC)[C@@H](OC(=O)NNC(=O)c3ccc4[nH]c(-c5ccccc5Cl)nc4c3)[C@H](C)O2)[C@H](C)[C@@H](O[C@@H]2O[C@H](C)C[C@H](N(C)C)[C@H]2O)[C@](C)(OC)C[C@@H](C)C(=O)[C@H](C)[C@@H](O)[C@]1(C)O`, for which the MIC is 0.06 µg/mL (≈ 0.0566 µM) with Staphylococcus aureus; 0.03 µg/mL (≈ 0.0283 µM) in the assay on Streptococcus pneumoniae [1]; 32 µg/mL (≈ 30.2 µM) with Streptococcus pneumoniae [2]; 32 µg/mL (≈ 30.2 µM) in the assay on Streptococcus pneumoniae [3]; 0.03 µg/mL (≈ 0.0283 µM) against Streptococcus pneumoniae [5]. The Ratio was determined as 267 in the assay with Streptococcus pneumoniae [4] and 133 with Streptococcus pneumoniae [6].

Take `CC[C@H]1OC(=O)[C@H](C)[C@@H](O[C@H]2C[C@@](C)(OC)[C@@H](OC(=O)NNC(=O)c3ccc4[nH]c(C(C)C)nc4c3)[C@H](C)O2)[C@H](C)[C@@H](O[C@@H]2O[C@H](C)C[C@H](N(C)C)[C@H]2O)[C@](C)(OC)C[C@@H](C)C(=O)[C@H](C)[C@@H](O)[C@]1(C)O`: the MIC with Staphylococcus aureus turned out to be 0.12 µg/mL (≈ 0.121 µM); with Streptococcus pneumoniae [1] it was 0.12 µg/mL (≈ 0.121 µM); in the assay with Streptococcus pneumoniae [2] it was 16 µg/mL (≈ 16.1 µM); in the assay with Streptococcus pneumoniae [3], 64 µg/mL (≈ 64.5 µM); with Streptococcus pneumoniae [5], 0.12 µg/mL (≈ 0.121 µM).

As to `CC[C@H]1OC(=O)[C@H](C)[C@@H](O[C@H]2C[C@@](C)(OC)[C@@H](OC(=O)NNC(=O)c3ccc4[nH]c(-c5cccc([N+](=O)[O-])c5)nc4c3)[C@H](C)O2)[C@H](C)[C@@H](O[C@@H]2O[C@H](C)C[C@H](N(C)C)[C@H]2O)[C@](C)(OC)C[C@@H](C)C(=O)[C@H](C)[C@@H](O)[C@]1(C)O`, the minimum inhibitory concentration (MIC) against Staphylococcus aureus stood at 0.5 µg/mL (≈ 0.467 µM); in the assay on Streptococcus pneumoniae [1] it was 0.25 µg/mL (≈ 0.233 µM); against Streptococcus pneumoniae [2] it was 64 µg/mL (≈ 59.7 µM); in the assay on Streptococcus pneumoniae [3] it was 128 µg/mL (≈ 119 µM); in the assay on Streptococcus pneumoniae [5], 1 µg/mL (≈ 0.934 µM).

As for `CC[C@H]1OC(=O)[C@H](C)[C@@H](O[C@H]2C[C@@](C)(OC)[C@@H](OC(=O)NNC(=O)c3ccc4[nH]cnc4c3)[C@H](C)O2)[C@H](C)[C@@H](O[C@@H]2O[C@H](C)C[C@H](N(C)C)[C@H]2O)[C@](C)(OC)C[C@@H](C)C(=O)[C@H](C)[C@@H](O)[C@]1(C)O`, the MIC in the assay with Staphylococcus aureus came out at 0.5 µg/mL (≈ 0.526 µM); with Streptococcus pneumoniae [1], 0.12 µg/mL (≈ 0.126 µM); against Streptococcus pneumoniae [2], 32 µg/mL (≈ 33.7 µM); against Streptococcus pneumoniae [3], 32 µg/mL (≈ 33.7 µM); with Streptococcus pneumoniae [5], 1 µg/mL (≈ 1.05 µM).

For `CC[C@H]1OC(=O)[C@H](C)[C@@H](O[C@H]2C[C@@](C)(OC)[C@@H](O)[C@H](C)O2)[C@H](C)[C@@H](O[C@@H]2O[C@H](C)C[C@H](N(C)C)[C@H]2O)[C@](C)(O)C[C@@H](C)C(=O)[C@H](C)[C@@H](O)[C@]1(C)O` [ERYTHROMYCIN], the MIC against Staphylococcus aureus was found to be 0.12 µg/mL (≈ 0.164 µM); against Streptococcus pneumoniae [1], 0.12 µg/mL (≈ 0.164 µM); with Streptococcus pneumoniae [2], 128 µg/mL (≈ 174 µM); against Streptococcus pneumoniae [3], 256 µg/mL (≈ 349 µM); in the assay with Streptococcus pneumoniae [5] it was 8 µg/mL (≈ 10.9 µM).

On to `CC[C@H]1OC(=O)[C@H](C)[C@@H](O[C@H]2C[C@@](C)(OC)[C@@H](OC(=O)NNC(=O)c3ccc4[nH]c(C)nc4c3)[C@H](C)O2)[C@H](C)[C@@H](O[C@@H]2O[C@H](C)C[C@H](N(C)C)[C@H]2O)[C@](C)(OC)C[C@@H](C)C(=O)[C@H](C)[C@@H](O)[C@]1(C)O`, for which the MIC with Staphylococcus aureus was determined as 0.5 µg/mL (≈ 0.519 µM); against Streptococcus pneumoniae [1], 0.12 µg/mL (≈ 0.124 µM); against Streptococcus pneumoniae [2], 8 µg/mL (≈ 8.3 µM); against Streptococcus pneumoniae [3], 64 µg/mL (≈ 66.4 µM); in the assay with Streptococcus pneumoniae [5], 1 µg/mL (≈ 1.04 µM).

`CC[C@H]1OC(=O)[C@H](C)[C@@H](O[C@H]2C[C@@](C)(OC)[C@@H](OC(=O)NNC(=O)c3ccc4[nH]c(-c5ccc(Br)cc5)nc4c3)[C@H](C)O2)[C@H](C)[C@@H](O[C@@H]2O[C@H](C)C[C@H](N(C)C)[C@H]2O)[C@](C)(OC)C[C@@H](C)C(=O)[C@H](C)[C@@H](O)[C@]1(C)O`: the minimal inhibitory concentration (MIC) against Staphylococcus aureus is 1 µg/mL (≈ 0.905 µM); with Streptococcus pneumoniae [1], 0.25 µg/mL (≈ 0.226 µM); against Streptococcus pneumoniae [2], 16 µg/mL (≈ 14.5 µM); in the assay with Streptococcus pneumoniae [3], 16 µg/mL (≈ 14.5 µM); in the assay with Streptococcus pneumoniae [5], 0.06 µg/mL (≈ 0.0543 µM).

For `CC[C@H]1OC(=O)[C@H](C)[C@@H](O[C@H]2C[C@@](C)(OC)[C@@H](OC(=O)NNC(=O)c3ccc4[nH]c(-c5cccc(Cl)c5O)nc4c3)[C@H](C)O2)[C@H](C)[C@@H](O[C@@H]2O[C@H](C)C[C@H](N(C)C)[C@H]2O)[C@](C)(OC)C[C@@H](C)C(=O)[C@H](C)[C@@H](O)[C@]1(C)O`, the MIC with Staphylococcus aureus was 0.5 µg/mL (≈ 0.464 µM); against Streptococcus pneumoniae [1], 0.03 µg/mL (≈ 0.0279 µM); in the assay on Streptococcus pneumoniae [2] it was 16 µg/mL (≈ 14.9 µM); with Streptococcus pneumoniae [3], 32 µg/mL (≈ 29.7 µM); in the assay with Streptococcus pneumoniae [5] it was 0.25 µg/mL (≈ 0.232 µM).

`CC[C@H]1OC(=O)[C@H](C)[C@@H](O[C@H]2C[C@@](C)(OC)[C@@H](OC(=O)NNC(=O)c3ccc4[nH]c(-c5ccc(C(F)(F)F)cc5)nc4c3)[C@H](C)O2)[C@H](C)[C@@H](O[C@@H]2O[C@H](C)C[C@H](N(C)C)[C@H]2O)[C@](C)(OC)C[C@@H](C)C(=O)[C@H](C)[C@@H](O)[C@]1(C)O`: the MIC against Staphylococcus aureus was 0.5 µg/mL (≈ 0.457 µM); against Streptococcus pneumoniae [1] it was 0.25 µg/mL (≈ 0.228 µM); in the assay with Streptococcus pneumoniae [2], 8 µg/mL (≈ 7.31 µM); in the assay on Streptococcus pneumoniae [3], 8 µg/mL (≈ 7.31 µM); in the assay on Streptococcus pneumoniae [5], 0.06 µg/mL (≈ 0.0548 µM).

As to `CC[C@H]1OC(=O)[C@H](C)[C@@H](O[C@H]2C[C@@](C)(OC)[C@@H](O)[C@H](C)O2)[C@H](C)[C@@H](O[C@@H]2O[C@H](C)C[C@H](N(C)C)[C@H]2O)[C@](C)(OC)C[C@@H](C)C(=O)[C@H](C)[C@@H](O)[C@]1(C)O` [CLARITHROMYCIN], the MIC with Staphylococcus aureus amounted to 0.12 µg/mL (≈ 0.16 µM); against Streptococcus pneumoniae [1], 0.12 µg/mL (≈ 0.16 µM); with Streptococcus pneumoniae [2], 128 µg/mL (≈ 171 µM); in the assay on Streptococcus pneumoniae [3] it was 128 µg/mL (≈ 171 µM); in the assay on Streptococcus pneumoniae [5], 4 µg/mL (≈ 5.35 µM).

For `CCc1nc2cc(C(=O)NNC(=O)O[C@H]3[C@H](C)O[C@@H](O[C@H]4[C@H](C)[C@@H](O[C@@H]5O[C@H](C)C[C@H](N(C)C)[C@H]5O)[C@](C)(OC)C[C@@H](C)C(=O)[C@H](C)[C@@H](O)[C@](C)(O)[C@@H](CC)OC(=O)[C@@H]4C)C[C@@]3(C)OC)ccc2[nH]1`, the minimum inhibitory concentration (MIC) was determined as 0.5 µg/mL (≈ 0.511 µM) in the assay on Staphylococcus aureus; 0.25 µg/mL (≈ 0.256 µM) against Streptococcus pneumoniae [1]; 32 µg/mL (≈ 32.7 µM) in the assay with Streptococcus pneumoniae [2]; 64 µg/mL (≈ 65.4 µM) against Streptococcus pneumoniae [3]; 0.12 µg/mL (≈ 0.123 µM) in the assay with Streptococcus pneumoniae [5].

Regarding `CC[C@H]1OC(=O)[C@H](C)[C@@H](O[C@H]2C[C@@](C)(OC)[C@@H](O)[C@H](C)O2)[C@H](C)[C@@H](O[C@@H]2O[C@H](C)C[C@H](N(C)C)[C@H]2O)[C@](C)(O)C[C@@H](C)CN(C)[C@H](C)[C@@H](O)[C@]1(C)O` [AZITHROMYCIN], the minimum inhibitory concentration (MIC) is 0.12 µg/mL (≈ 0.16 µM) in the assay on Staphylococcus aureus; 0.12 µg/mL (≈ 0.16 µM) in the assay with Streptococcus pneumoniae [1]; 128 µg/mL (≈ 171 µM) against Streptococcus pneumoniae [2]; 256 µg/mL (≈ 342 µM) in the assay with Streptococcus pneumoniae [3]; 4 µg/mL (≈ 5.34 µM) with Streptococcus pneumoniae [5].

For `CC[C@H]1OC(=O)[C@H](C)[C@@H](O[C@H]2C[C@@](C)(OC)[C@@H](OC(=O)NNC(=O)c3ccc4[nH]c(C(F)(F)F)nc4c3)[C@H](C)O2)[C@H](C)[C@@H](O[C@@H]2O[C@H](C)C[C@H](N(C)C)[C@H]2O)[C@](C)(OC)C[C@@H](C)C(=O)[C@H](C)[C@@H](O)[C@]1(C)O`, the minimum inhibitory concentration (MIC) in the assay on Staphylococcus aureus is 0.25 µg/mL (≈ 0.246 µM); in the assay on Streptococcus pneumoniae [1], 0.12 µg/mL (≈ 0.118 µM); against Streptococcus pneumoniae [2], 32 µg/mL (≈ 31.4 µM); against Streptococcus pneumoniae [3] it was 64 µg/mL (≈ 62.9 µM); in the assay with Streptococcus pneumoniae [5], 0.12 µg/mL (≈ 0.118 µM).

For the compound `CCCc1nc2cc(C(=O)NNC(=O)O[C@H]3[C@H](C)O[C@@H](O[C@H]4[C@H](C)[C@@H](O[C@@H]5O[C@H](C)C[C@H](N(C)C)[C@H]5O)[C@](C)(OC)C[C@@H](C)C(=O)[C@H](C)[C@@H](O)[C@](C)(O)[C@@H](CC)OC(=O)[C@@H]4C)C[C@@]3(C)OC)ccc2[nH]1`, the minimum inhibitory concentration (MIC) in the assay on Staphylococcus aureus was 0.25 µg/mL (≈ 0.252 µM); against Streptococcus pneumoniae [1], 0.12 µg/mL (≈ 0.121 µM); in the assay on Streptococcus pneumoniae [2] it was 64 µg/mL (≈ 64.5 µM); in the assay with Streptococcus pneumoniae [3] it was 64 µg/mL (≈ 64.5 µM); against Streptococcus pneumoniae [5] it was 0.12 µg/mL (≈ 0.121 µM).
